These results are taken from article PMC8913318 (The Journal of Biological Chemistry, 2022).

For orientation: Kd means the constant that tells how readily two partners part at equilibrium. As a reminder, the Km is the substrate concentration at which the rate is half of its maximum.

Data set [1] addresses T1, CYP168A1 (Pseudomonas aeruginosa, UniProt Q9I107).
T1 sequence (Q9I107 1-444): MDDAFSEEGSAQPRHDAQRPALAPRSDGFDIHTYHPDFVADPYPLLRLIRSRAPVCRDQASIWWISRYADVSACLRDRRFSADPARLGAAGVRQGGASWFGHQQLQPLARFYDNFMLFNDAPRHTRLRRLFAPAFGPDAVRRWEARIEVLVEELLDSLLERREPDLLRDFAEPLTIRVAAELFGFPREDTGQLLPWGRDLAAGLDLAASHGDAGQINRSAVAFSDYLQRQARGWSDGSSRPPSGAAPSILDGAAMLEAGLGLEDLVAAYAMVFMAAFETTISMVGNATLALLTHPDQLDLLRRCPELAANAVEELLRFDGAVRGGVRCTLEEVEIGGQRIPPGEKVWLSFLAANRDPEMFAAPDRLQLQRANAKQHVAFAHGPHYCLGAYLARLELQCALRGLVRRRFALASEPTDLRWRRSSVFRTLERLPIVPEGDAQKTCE
Put plainly: Ligand Kd determination by optical difference spectroscopy. The note with it: for Δ absorbance maxima: 1 μM CYP168A1. In kind it is binding.

The target of data set [2] is T1, CYP168A1. In words: Recombinant CYP168A1 lauric acid in vitro metabolic assays. In kind it is biochemical.
In data set [3] the target is T1, CYP168A1. Put plainly: biochemical. The settings on record: Ki ± SE, substrate inhibition constant.
Data set [4] has as its target T1, CYP168A1. The settings on record: 19-HETE formation; substrate inhibition model.
In another data set the test system is P. aeruginosa. The note with it: exposure of P. aeruginosa to arachidonic acid; cited from earlier work.
Setting [5] is: ND = no spectral shift detected.
The mark [6] stands for this setting: lauric acid ω-1-hydroxylation, Hill fit (preferred model).

Entries after “also recorded” stand apart in the source; their conditions may differ. Read-outs that look alike come from different tables or passages of the source.

On CYP168A1 [1], `Clc1ccc(COC(Cn2ccnc2)c2ccc(Cl)cc2Cl)cc1` (stereo not shown) [Econazole] registered a Kd of 2500 ± 400 nM. For the same compound, the Δ absorbance maxima on CYP168A1 [1] (setting [5]) came out at 0.026 AU.

Turning to `CCCCCCCC/C=C\CCCCCCCC(=O)O` [Oleic acid], the Kd at CYP168A1 [1] came to 370 ± 70 nM. On CYP168A1 [1] (setting [5]), the Δ absorbance maxima was 0.099 AU.

As to `Clc1ccccc1C(c1ccccc1)(c1ccccc1)n1ccnc1` [Clotrimazole], the affinity at CYP168A1 [1], expressed as Kd, was 3000 ± 400 nM. Also, on CYP168A1 [1] (setting [5]), the Δ absorbance maxima was 0.053 AU.

For `CC(C)CCC[C@@H](C)[C@H]1CC[C@H]2[C@@H]3CC=C4C[C@@H](O)CC[C@]4(C)[C@H]3CC[C@]12C` [cholesterol], the “Spectral shift of the Soret band (difference spectrum type)” value at CYP168A1 [1] (UV-visible titration of CYP168A1) is listed as “no spectral changes; also recorded: did not exert any changes”.

Take `CCCCCCCCCCCCCC(=O)O` [Myristic acid]: the Kd at CYP168A1 [1] was 830 ± 150 nM. Also, the Δ absorbance maxima on CYP168A1 [1] (setting [5]) stood at 0.048 AU.

In turn, `CCCCCCCCCCCCCCCC(=O)O` [Palmitic acid] registered a Kd at CYP168A1 [1] of 210 ± 40 nM. For the same compound, on CYP168A1 [1] (setting [5]), the Δ absorbance maxima stood at 0.064 AU.

Consider `CCCCCCCCCCCC(=O)O` [Lauric acid], for which, at CYP168A1 [2] (LC-MS analysis, spinach redox partners and NADPH), the “proportion of lauric acid metabolized to the ω-hydroxyl derivative” value is reported as less than 5%. For the same compound, the “n, cooperativity value for the substrate binding” value at CYP168A1 [2] (lauric acid ω-1-hydroxylation, Hill fit) is recorded as 1.5. In addition, at CYP168A1 [2] (setting [6]), the “S50 ± SE” value came to 34 ± 2 µM and the “Vmax ± SE” value is reported as 0.12 ± 0.004 nmol/min/nmol P450. Also, the “Vmax ± SE” value on CYP168A1 [2] (lauric acid ω-1-hydroxylation, Michaelis-Menten fit) came out at 0.14 ± 0.006 nmol/min/nmol P450. Further, the Km on CYP168A1 [2] (read-out: Km ± SE, lauric acid ω-1-hydroxylation to 11-hydroxylauric acid, Michaelis-Menten fit) was 46 ± 5 µM. Further, the Δ absorbance maxima at CYP168A1 [1] (setting [5]) worked out at 0.013 AU. In addition, the Kd at CYP168A1 [1] (read-out: Kd ± SE, 1 μM CYP168A1, 100 mM potassium phosphate pH 7.4, one binding site model, ND = no spectral shift detected) is 1900 ± 300 nM.

On CYP168A1 [1], `Clc1ccc(COC(Cn2ccnc2)c2ccc(Cl)cc2Cl)c(Cl)c1` (stereo not shown) [Miconazole] came in with a Kd of 880 ± 180 nM. On CYP168A1 [1] (setting [5]), the Δ absorbance maxima is 0.036 AU.

Turning to `CCCCCCCCCCCCCCCCCC(=O)O` [Stearic acid], the Kd on CYP168A1 [1] turned out to be 330 ± 70 nM. In addition, the Δ absorbance maxima at CYP168A1 [1] (setting [5]) came to 0.078 AU.

`CCCCCCCCCC(=O)O` [Decanoic acid] had a Kd at CYP168A1 [1] of 21000 ± 4000 nM. The Δ absorbance maxima at CYP168A1 [1] (setting [5]) was 0.016 AU.

Turning to `CCCCC/C=C\C/C=C\C/C=C\C/C=C\CCCC(=O)O` [Arachidonic acid], the Ki at CYP168A1 [3] (18-HETE formation) was 16000 ± 8000 nM; on CYP168A1 [3] (19-HETE formation), 13000 ± 8000 nM. For the same compound, the “Vmax ± SE” value at CYP168A1 [4] was determined as 220 pmol/min/nmol P450. Moreover, the “increase in the minimum inhibitory concentration (MIC) for polymyxin B” value with P. aeruginosa is “eightfold increase”. On CYP168A1 [1], this compound showed a Kd of 960 ± 70 nM. Further, on CYP168A1 [1] (setting [5]), the Δ absorbance maxima came to 0.058 AU.
